From the NIST ThermoML archive (doi:10.1007/s10765-009-0667-2)

Assay: xn = mol fraction of the nth substance listed
Settings: 101 kPa, Liquid; for mass density: Vibrating tube method

CCCCCCC [heptane] + Cc1ccccc1
x1 = 1
Settings | mass density [kg/m3] | viscosity [mPa·s]
308.15 K | 671.3 | 0.3497
313.15 K | 667.1 | 0.3329

CCCCCCC [heptane] + CCc1ccccc1
x1 = 1
Settings | mass density [kg/m3] | viscosity [mPa·s]
308.15 K | 671.3 | 0.3497
313.15 K | 667.1 | 0.3329

C1CCCCCCC1 [cyclooctane] + CCCCCCC
Settings | mass density, 308.15 K [kg/m3] | mass density, 313.15 K [kg/m3] | viscosity, 308.15 K [mPa·s] | viscosity, 313.15 K [mPa·s]
x2 = 0 | 823.6 | 819.7 | 1.803 | 1.636
x2 = 0.0938 | 807.7 | 803.8 | 1.405 | 1.288
x2 = 0.1897 | 793 | 789.1 | 1.125 | 1.044
x2 = 0.2896 | 777.5 | 773.6 | 0.9246 | 0.8605
x2 = 0.3979 | 760.8 | 756.8 | 0.7613 | 0.7127
x2 = 0.4949 | 746.1 | 742.2 | 0.6608 | 0.6207
x2 = 0.5964 | 730.9 | 726.9 | 0.5725 | 0.5389
x2 = 0.6919 | 716.7 | 712.7 | 0.5028 | 0.4754
x2 = 0.7795 | 703.6 | 699.7 | 0.4487 | 0.4256
x2 = 0.8934 | 686.9 | 682.8 | 0.4002 | 0.3754

CCCCCCC [heptane] + c1ccccc1
x2 = 0
Settings | mass density [kg/m3] | viscosity [mPa·s]
308.15 K | 671.3 | 0.3497
313.15 K | 667.1 | 0.3329

Cc1ccccc1 [toluene] + CCc1ccccc1
x1 = 1
Settings | mass density [kg/m3] | viscosity [mPa·s]
308.15 K | 852.8 | 0.494
313.15 K | – | 0.4755
318.15 K | 848.3 | –

CCc1ccccc1 [ethylbenzene] + CCCCCCC
Settings | mass density, 308.15 K [kg/m3] | mass density, 313.15 K [kg/m3] | viscosity, 308.15 K [mPa·s] | viscosity, 313.15 K [mPa·s]
x2 = 0 | 853.7 | 849.5 | 0.5652 | 0.5294
x2 = 0.1034 | 831.5 | 827.4 | 0.5217 | 0.4945
x2 = 0.2048 | 810.6 | 806.5 | 0.4925 | 0.4631
x2 = 0.2931 | 793 | 788.8 | 0.4625 | 0.4393
x2 = 0.3754 | 777.2 | 773 | 0.44 | 0.419
x2 = 0.488 | 756.3 | 752.2 | 0.4195 | 0.3986
x2 = 0.5929 | 737.7 | 733.6 | 0.4061 | 0.3807
x2 = 0.6899 | 720.9 | 716.7 | 0.3859 | 0.3669
x2 = 0.8051 | 701.8 | 697.7 | 0.369 | 0.3516
x2 = 0.8979 | 687.1 | 683 | 0.3659 | 0.3425

c1ccccc1 [benzene] + CCc1ccccc1
x1 = 1
Settings | mass density [kg/m3] | viscosity [mPa·s]
308.15 K | 862.9 | 0.5272
313.15 K | 857.7 | 0.4942

CCCCCCC [heptane] + C1CCCCCCC1
x1 = 1
Settings | mass density [kg/m3] | viscosity [mPa·s]
308.15 K | 671.3 | 0.3497
313.15 K | 667.1 | 0.3329

C1CCCCCCC1 [cyclooctane] + CCc1ccccc1
Settings | mass density, 308.15 K [kg/m3] | mass density, 313.15 K [kg/m3] | viscosity, 308.15 K [mPa·s] | viscosity, 313.15 K [mPa·s]
x2 = 0 | 823.6 | 819.7 | 1.803 | 1.636
x2 = 0.0907 | 824.8 | 820.9 | 1.487 | 1.356
x2 = 0.2033 | 827.1 | 823.2 | 1.206 | 1.11
x2 = 0.3072 | 829.5 | 825.6 | 1.022 | 0.9578
x2 = 0.3701 | 831.2 | 827.2 | 0.9433 | 0.8765
x2 = 0.4761 | 834.2 | 830.2 | 0.8369 | 0.7835
x2 = 0.5798 | 837.5 | 833.4 | 0.7568 | 0.7089
x2 = 0.7008 | 841.7 | 837.6 | 0.6736 | 0.6403
x2 = 0.7922 | 845.1 | 840.9 | 0.6351 | 0.5979
x2 = 0.8908 | 849 | 844.8 | 0.5958 | 0.5629

C1CCCCCCC1 [cyclooctane] + c1ccccc1
Settings | mass density, 308.15 K [kg/m3] | mass density, 313.15 K [kg/m3] | viscosity, 308.15 K [mPa·s] | viscosity, 313.15 K [mPa·s]
x2 = 0 | 823.6 | 819.7 | 1.803 | 1.636
x2 = 0.1004 | 824.9 | 821 | 1.494 | 1.368
x2 = 0.1826 | 826.4 | 822.4 | 1.294 | 1.193
x2 = 0.3035 | 829 | 824.9 | 1.072 | 0.993
x2 = 0.408 | 831.9 | 827.6 | 0.9222 | 0.859
x2 = 0.5122 | 835.2 | 830.9 | 0.8085 | 0.7548
x2 = 0.5243 | 835.7 | 831.4 | 0.7963 | 0.7437
x2 = 0.6891 | 842.7 | 838.1 | 0.6667 | 0.6274
x2 = 0.7904 | 848.1 | 843.3 | 0.6042 | 0.5677
x2 = 0.9001 | 855.1 | 850.1 | 0.5651 | 0.5263

c1ccccc1 [benzene] + Cc1ccccc1
Settings | mass density, 308.15 K [kg/m3] | mass density, 313.15 K [kg/m3] | viscosity, 308.15 K [mPa·s] | viscosity, 313.15 K [mPa·s]
x1 = 0.0403 | 853.1 | 848.6 | 0.4943 | 0.468
x1 = 0.1393 | 853.7 | 849.1 | 0.4998 | 0.4681
x1 = 0.2551 | 854.5 | 849.9 | 0.4968 | 0.4693
x1 = 0.3116 | 855 | 850.3 | 0.4968 | 0.469
x1 = 0.3863 | 855.7 | 850.9 | 0.4977 | 0.4705
x1 = 0.5033 | 856.6 | 851.8 | 0.503 | 0.4747
x1 = 0.6139 | 857.8 | 852.9 | 0.5078 | 0.4785
x1 = 0.7301 | 859.1 | 854.1 | 0.5166 | 0.4813
x1 = 0.8551 | 860.8 | 855.7 | 0.5227 | 0.487
x1 = 1 | 862.9 | 857.7 | 0.5272 | 0.4942

Cc1ccccc1 [toluene] + C1CCCCCCC1
x1 = 1
Settings | mass density [kg/m3] | viscosity [mPa·s]
308.15 K | 852.8 | 0.494
313.15 K | 848.3 | 0.4676
